Reference: ChEMBL document CHEMBL1909604, “A novel potential therapeutic avenue for autism: design, synthesis and pharmacophore generation of SSRIs with dual action” (Bioorg Med Chem Lett, 2011)

Columns and labels:
[1] = biological target: 5-hydroxytryptamine receptor 1D (Homo sapiens, UniProt P28221); test: Displacement of [3H]GR125743 from recombinant human 5-HT1D receptor expressed in HEK cells by scintillation counting; format: cell-based, HEK293
[2] = biological target: 5-hydroxytryptamine receptor 1B (Homo sapiens, UniProt P28222); test: Displacement of [3H]carboxytryptamine from recombinant human 5-HT1B receptor expressed in HEK cells by scintillation counting; format: cell-based, HEK293
Chain of 5-hydroxytryptamine receptor 1B (P28222 whole entry): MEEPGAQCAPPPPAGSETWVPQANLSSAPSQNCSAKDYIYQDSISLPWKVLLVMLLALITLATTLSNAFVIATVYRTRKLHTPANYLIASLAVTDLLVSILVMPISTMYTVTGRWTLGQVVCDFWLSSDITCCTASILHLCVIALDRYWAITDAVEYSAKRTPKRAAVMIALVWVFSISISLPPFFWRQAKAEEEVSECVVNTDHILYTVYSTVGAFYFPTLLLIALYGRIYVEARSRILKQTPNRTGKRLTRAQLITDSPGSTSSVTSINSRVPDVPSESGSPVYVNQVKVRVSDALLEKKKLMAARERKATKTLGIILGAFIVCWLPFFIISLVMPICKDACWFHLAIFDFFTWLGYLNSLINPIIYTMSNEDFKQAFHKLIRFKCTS

Chain of 5-hydroxytryptamine receptor 1D (P28221 whole entry): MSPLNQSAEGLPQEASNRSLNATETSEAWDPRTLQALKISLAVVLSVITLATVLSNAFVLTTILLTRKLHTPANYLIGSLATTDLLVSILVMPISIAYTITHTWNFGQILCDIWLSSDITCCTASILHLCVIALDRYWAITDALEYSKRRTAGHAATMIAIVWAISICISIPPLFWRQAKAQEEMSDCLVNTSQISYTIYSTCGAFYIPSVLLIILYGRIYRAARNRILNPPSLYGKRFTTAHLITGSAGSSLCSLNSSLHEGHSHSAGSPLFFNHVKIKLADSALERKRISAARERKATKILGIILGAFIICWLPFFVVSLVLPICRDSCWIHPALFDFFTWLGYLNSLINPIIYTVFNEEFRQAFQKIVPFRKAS

Ki [1]: 44 nM
Ki [2]: 120 nM
SMILES: COc1ccc(NC(=O)c2ccc3c(c2)N(C)C(=O)CN3c2ccc(Cl)c(Cl)c2)cc1N1CCN(C)CC1
